Laboratory results taken from US12110279B2, “Triazolones, tetrazolones, and imidazolones, or their salts, and pharmaceutical compositions comprising the same” (Yuhan Corporation, priority 2021, dated 2024).
Counter-ions that a name gives are not always drawn. Like-named read-outs stand apart in the source and are kept apart here.

Experiments:
Format in all cases: biochemical
[1] = biological target: T1, recombinant human MAO-B (monoamine oxidase-B) (Homo sapiens, UniProt P27338); experiment: Amplex Red HRP-coupled amine oxidase activity evaluation, recombinant human MAO-B; details: substrate 1 mM benzylamine; read-out: Inhibitory Activity (IC50, nM) MAO-B
T1 construct: purchased Sigma-Aldrich
T1 sequence (P27338 1-520): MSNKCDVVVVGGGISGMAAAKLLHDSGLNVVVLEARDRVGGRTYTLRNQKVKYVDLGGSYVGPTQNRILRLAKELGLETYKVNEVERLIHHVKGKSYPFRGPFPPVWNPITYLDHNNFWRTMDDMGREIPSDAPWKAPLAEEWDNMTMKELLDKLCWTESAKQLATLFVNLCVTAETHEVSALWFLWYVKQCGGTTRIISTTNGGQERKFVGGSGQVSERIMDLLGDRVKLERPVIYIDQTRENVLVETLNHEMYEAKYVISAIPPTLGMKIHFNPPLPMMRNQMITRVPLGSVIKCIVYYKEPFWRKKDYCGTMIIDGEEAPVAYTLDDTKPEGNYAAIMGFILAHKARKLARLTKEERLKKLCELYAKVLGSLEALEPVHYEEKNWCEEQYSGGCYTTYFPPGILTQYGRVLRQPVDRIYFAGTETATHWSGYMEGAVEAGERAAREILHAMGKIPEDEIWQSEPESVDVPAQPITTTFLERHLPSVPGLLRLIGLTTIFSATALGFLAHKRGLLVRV

[2] = biological target: T2, recombinant human VAP-1 (Homo sapiens, UniProt Q16853); experiment: Amplex Red HRP-coupled amine oxidase activity evaluation, recombinant human VAP-1; details: substrate 1 mM benzylamine; 30 min preincubation at 37° C.; read-out: Inhibitory Activity (IC50, nM) human VAP-1
T2 construct: purchased R&D systems
T2 sequence (Q16853 1-763): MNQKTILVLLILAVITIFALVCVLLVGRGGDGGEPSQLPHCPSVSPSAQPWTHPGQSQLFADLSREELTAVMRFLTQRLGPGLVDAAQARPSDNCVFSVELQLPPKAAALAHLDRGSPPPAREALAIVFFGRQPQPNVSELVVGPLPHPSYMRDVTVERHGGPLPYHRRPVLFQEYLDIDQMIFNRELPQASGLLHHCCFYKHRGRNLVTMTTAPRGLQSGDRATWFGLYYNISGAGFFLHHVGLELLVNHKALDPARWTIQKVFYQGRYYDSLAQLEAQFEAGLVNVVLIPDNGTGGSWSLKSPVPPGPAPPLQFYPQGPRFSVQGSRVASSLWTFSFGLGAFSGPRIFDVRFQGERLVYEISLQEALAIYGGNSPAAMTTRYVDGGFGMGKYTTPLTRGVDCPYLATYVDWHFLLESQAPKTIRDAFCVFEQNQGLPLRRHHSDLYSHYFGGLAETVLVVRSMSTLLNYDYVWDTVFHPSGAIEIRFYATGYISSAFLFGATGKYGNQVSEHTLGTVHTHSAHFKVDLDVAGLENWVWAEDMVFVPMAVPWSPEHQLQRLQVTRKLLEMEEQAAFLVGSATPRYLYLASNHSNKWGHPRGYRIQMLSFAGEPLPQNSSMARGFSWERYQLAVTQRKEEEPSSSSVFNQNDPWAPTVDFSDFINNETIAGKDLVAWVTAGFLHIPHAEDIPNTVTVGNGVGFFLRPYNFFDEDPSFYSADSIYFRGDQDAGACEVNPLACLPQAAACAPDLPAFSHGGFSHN
In short: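 VAP-1 was preincubated with compound at 37° C for 30 minutes in 50 mM sodium phosphate, pH 7.4, then a mix of 200 uM Amplex Red, 1 mM benzylamine and 1 U/mL HRP was added.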

[3] = biological target: T3, recombinant human DAO (diamine oxidase) (Homo sapiens, UniProt P19801); experiment: Amplex Red HRP-coupled amine oxidase activity evaluation, recombinant human DAO
T3 construct: purchased R&D systems
T3 sequence (P19801 20-751): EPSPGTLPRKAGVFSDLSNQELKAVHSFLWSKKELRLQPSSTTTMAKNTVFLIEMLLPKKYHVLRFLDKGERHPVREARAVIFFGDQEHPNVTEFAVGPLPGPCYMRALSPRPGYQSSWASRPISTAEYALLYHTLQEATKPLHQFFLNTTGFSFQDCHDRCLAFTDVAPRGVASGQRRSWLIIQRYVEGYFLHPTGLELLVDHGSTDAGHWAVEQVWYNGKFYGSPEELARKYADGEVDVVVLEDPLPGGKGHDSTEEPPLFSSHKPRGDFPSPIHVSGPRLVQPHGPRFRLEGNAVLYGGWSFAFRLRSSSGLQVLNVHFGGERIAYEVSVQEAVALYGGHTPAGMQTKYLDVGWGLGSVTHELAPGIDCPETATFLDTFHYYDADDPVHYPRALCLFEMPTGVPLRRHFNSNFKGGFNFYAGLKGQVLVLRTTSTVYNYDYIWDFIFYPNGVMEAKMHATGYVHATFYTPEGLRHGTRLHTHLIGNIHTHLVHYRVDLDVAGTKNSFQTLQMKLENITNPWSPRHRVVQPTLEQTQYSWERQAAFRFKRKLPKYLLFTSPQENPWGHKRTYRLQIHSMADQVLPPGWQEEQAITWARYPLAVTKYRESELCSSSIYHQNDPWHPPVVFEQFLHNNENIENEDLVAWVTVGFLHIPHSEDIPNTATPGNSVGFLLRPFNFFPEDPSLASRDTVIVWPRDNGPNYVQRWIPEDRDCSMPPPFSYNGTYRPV

[4] = biological target: T4, recombinant human MAO-A (monoamine oxidase-A) (Homo sapiens, UniProt P21397); experiment: Amplex Red HRP-coupled amine oxidase activity evaluation, recombinant human MAO-A; details: substrate 0.5 mM tyramine; read-out: Inhibitory Activity (IC50, nM) MAO-A
T4 construct: purchased Sigma-Aldrich
T4 sequence (P21397 1-527): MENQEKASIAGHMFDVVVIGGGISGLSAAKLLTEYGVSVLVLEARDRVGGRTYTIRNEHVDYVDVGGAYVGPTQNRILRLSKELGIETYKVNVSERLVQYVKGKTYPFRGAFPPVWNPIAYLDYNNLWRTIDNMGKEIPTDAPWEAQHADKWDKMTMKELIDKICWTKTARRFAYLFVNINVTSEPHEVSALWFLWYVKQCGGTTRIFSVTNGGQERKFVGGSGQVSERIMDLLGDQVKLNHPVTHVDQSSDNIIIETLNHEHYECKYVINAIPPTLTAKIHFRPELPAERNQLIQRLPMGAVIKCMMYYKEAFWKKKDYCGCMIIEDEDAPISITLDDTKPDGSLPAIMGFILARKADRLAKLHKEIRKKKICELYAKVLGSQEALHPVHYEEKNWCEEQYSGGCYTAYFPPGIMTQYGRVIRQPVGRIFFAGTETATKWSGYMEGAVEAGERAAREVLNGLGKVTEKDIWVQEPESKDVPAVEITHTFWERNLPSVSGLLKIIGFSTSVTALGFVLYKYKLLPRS

[5] = substrate 1 mM putrescine, read-out: Inhibitory Activity (IC50, nM) DAO

Row | Structure (SMILES) | IC50 [1] [nM] | IC50 [2] [nM] | IC50 [3, 5] [nM] | IC50 [4] [nM] | IC50 [3] [nM]
1 | NCC(Cn1nnn(-c2cc(-c3ccc(N4CCNCC4)cc3)cs2)c1=O)=C(F)F [Example 36, 1-[2-(aminomethyl)-3,3-difluoro-allyl]-4-[4-(4-piperazin-1-ylphenyl)-2-thienyl]tetrazol-5-one di-trifluoroacetate] | > 100000 | 1.1 | 8470 | > 100000 | 
2 | CCn1cc(-c2csc(-n3nnn(CC(CN)=C(F)F)c3=O)c2)ccc1=O [Example 37, 5-[5-[4-[2-(aminomethyl)-3,3-difluoro-allyl]-5-oxo-tetrazol-1-yl]-3-thienyl]-1-ethyl-pyridin-2-one trifluoroacetate] | 3450 | 0.3 | 25300 | > 100000 | 
3 | CN(C)c1ccc(-c2csc(-n3nnn(CC(CN)=C(F)F)c3=O)c2)cn1 [Example 38, 1-[2-(aminomethyl)-3,3-difluoro-allyl]-4-[4-[6-(dimethylamino)-3-pyridyl]-2-thienyl]tetrazol-5-one trifluoroacetate] | 768 | 0.8 | > 100000 | > 100000 | 
4 | NCC(Cn1nnn(-c2cc(-c3ccc4c(c3)OCO4)cs2)c1=O)=C(F)F [Example 39, 1-[2-(aminomethyl)-3,3-difluoro-allyl]-4-[4-(1,3-benzodioxol-5-yl)-2-thienyl]tetrazol-5-one trifluoroacetate] | 21 | 0.6 | 88 | 26200 | 
5 | Cc1cc(-c2csc(-n3nnn(CC(CN)=C(F)F)c3=O)c2)cc2c1NC(=O)CC2 [Example 40, 6-[5-[4-[2-(aminomethyl)-3,3-difluoro-allyl]-5-oxo-tetrazol-1-yl]-3-thienyl]-8-methyl-3,4-dihydro-1H-quinolin-2-one trifluoroacetate] | 123 | 0.4 | 1.6 | 56100 | 
6 | CN1C(=O)CCc2cc(-c3csc(-n4nnn(CC(CN)=C(F)F)c4=O)c3)ccc21 [Example 41, 6-[5-[4-[2-(aminomethyl)-3,3-difluoro-allyl]-5-oxo-tetrazol-1-yl]-3-thienyl]-1-methyl-3,4-dihydroquinolin-2-one trifluoroacetate] | 34 | 0.4 | 52 | > 100000 | 
7 | CCn1cc(-c2csc(-n3nnn(CC(CN)=C(F)F)c3=O)c2)cn1 [Example 42, 1-[2-(aminomethyl)-3,3-difluoro-allyl]-4-[4-(1-ethylpyrazol-4-yl)-2-thienyl]tetrazol-5-one trifluoroacetate] | 228 | 0.4 | 0.6 | > 100000 | 
8 | CS(=O)(=O)c1ccc(-c2ccc(Cn3nnn(CC(CN)=C(F)F)c3=O)s2)cc1 [Example 43, 1-[2-(aminomethyl)-3,3-difluoro-allyl]-4-[[5-(4-methylsulfonylphenyl)-2-thienyl]methyl]tetrazol-5-one trifluoroacetate] | 19700 | 0.4 | 911 | 72800 | 
9 | CCn1cc(-c2ccc(Cn3nnn(CC(CN)=C(F)F)c3=O)s2)ccc1=O [Example 44, 5-[5-[[4-[2-(aminomethyl)-3,3-difluoro-allyl]-5-oxo-tetrazol-1-yl]methyl]-2-thienyl]-1-ethyl-pyridin-2-one trifluoroacatate] | 10000 | 0.3 | 762 | > 100000 | 
10 | Cc1cc(-c2ccc(Cn3nnn(CC(CN)=C(F)F)c3=O)s2)cc2c1NC(=O)CC2 [Example 45, 6-[5-[[4-[2-(aminomethyl)-3,3-difluoro-allyl]-5-oxo-tetrazol-1-yl]methyl]-2-thienyl]-8-methyl-3,4-dihydro-1H-quinolin-2-one trifluoroacetate] | 7210 | 0.6 | 1870 | 49200 | 
11 | CN1C(=O)CCc2cc(-c3ccc(Cn4nnn(CC(CN)=C(F)F)c4=O)s3)ccc21 [Example 46, 6-[5-[[4-[2-(aminomethyl)-3,3-difluoro-allyl]-5-oxo-tetrazol-1-yl]methyl]-2-thienyl]-1-methyl-3,4-dihydroquinolin-2-one trifluoroacetate] | 6830 | 0.5 | 1050 | 63100 | 
12 | CCn1cc(-c2ccc(Cn3nnn(CC(CN)=C(F)F)c3=O)s2)cn1 [Example 47, 1-[2-(aminomethyl)-3,3-difluoro-allyl]-4-[[5-(1-ethylpyrazol-4-yl)-2-thienyl]methyl]tetrazol-5-one trifluoroacetate] | 15100 | 0.5 | 8170 | > 100000 | 
13 | NCC(Cn1nnn(-c2cncc(-c3ccc4c(c3)OCO4)c2)c1=O)=C(F)F [Example 48, 1-[2-(aminomethyl)-3,3-difluoro-allyl]-4-[5-(1,3-benzodioxol-5-yl)-3-pyridyl]tetrazol-5-one trifluoroacetate] | 4400 | 2.9 |  | 36900 | 56
14 | Cc1cc(-c2cncc(-n3nnn(CC(CN)=C(F)F)c3=O)c2)cc2c1NC(=O)CC2 [Example 49, 6-[5-[4-[2-(aminomethyl)-3,3-difluoro-allyl]-5-oxo-tetrazol-1-yl]-3-pyridyl]-8-methyl-3,4-dihydro-1H-quinolin-2-one trifluoroacetate] | 7080 | 0.9 |  | 52200 | 3.5
15 | CCn1cc(-c2ccc(Cn3ccn(CC(CN)=C(F)F)c3=O)s2)ccc1=O [Example 50, 5-[5-[[3-[2-(aminomethyl)-3,3-difluoro-allyl]-2-oxo-imidazol-1-yl]methyl]-2-thienyl]-1-ethyl-pyridin-2-one trifluoroacetate] | > 100000 | > 100 | 8.3 | > 100000 | 
